Experimental data published in patent US20060276542A1, “Methods for treating functional bowel disorders using alpha2 subunit calcium channel modulators with smooth muscle modulators” (priority 2003, published 2006).

Assays:
beta-adrenergic = conditions: cited from earlier work
[1] = preclinical and clinical studies, cited from earlier work
[2] = test system: reduction in bladder capacity following continuous infusion of dilute acetic acid; assay: Dilute acetic acid irritative model, bladder capacity by cystometry; type: in vivo, rat; conditions: isobologram, drug alone; for common maximal effect, return to % of saline control bladder capacity: group mean data; for common maximal effect (target value), return to % of saline control bladder capacity: individual responses
Description: Urethane anesthetized (1.2 g/kg) normal female rats were utilized in this study.
Animals were dosed by volume of injection=body weight in kg.
Animal Preparation: Female rats (250-300 g body weight) were anesthetized with urethane (1.2 g/kg) and a saline-filled catheter (PE-50) was inserted into the jugular vein for intravenous drug administration. […] The abdominal cavity was moistened with saline and closed by covering with a thin plastic sheet in order to maintain access to the bladder for emptying purposes. Fine silver or stainless steel wire electrodes were inserted into the external urethral sphincter (EUS) percutaneously for electromyography (EMG).
Following 30 minutes of AA infusion, 3 vehicle injections were made at 20 minute intervals to determine vehicle effects, if any.
P<0.050 was considered significant.

Row | SMILES | potency of L-enantiomer relative to D-enantiomer (beta-adrenergic) | blood levels of gabapentin across a broad range of oral doses ([1]; oral) | absorption from the large intestine [1] | common maximal effect, return to % of saline control bladder capacity [2] | common maximal effect (target value), return to % of saline control bladder capacity [2]
1 | CC(C)NC[C@H](O)COc1cccc2ccccc12 [L-enantiomer of propranolol, propranolol] | 100 times |  |  |  | 
2 | CC(OC(=O)NCC1(CC(=O)O)CCCCC1)OC(=O)C(C)C (stereo not shown) [XP13512] |  | dose proportional blood levels of gabapentin | absorbed efficiently from the large intestine |  | 
3 | NCC1(CC(=O)O)CCCCC1 [gabapentin, 1-(aminomethyl)cyclohexaneacetic acid] |  |  |  | 43 % of saline control | 31 % of saline control
4 | CCN(CC)CC#CCOC(=O)C(O)(c1ccccc1)C1CCCCC1 (stereo not shown) [oxybutynin, 4-diethylaminio-2-butynyl phenylcyclohexyglycolate] |  |  |  | 43 % of saline control | 31 % of saline control
